Source: ChEMBL document CHEMBL5291721, “A preclinical secondary pharmacology resource illuminates target-adverse drug reaction associations of marketed drugs” (Nat Commun, 2023)

Legend:
[1] = target: Voltage-dependent L-type calcium channel subunit alpha-1C (Rattus norvegicus, UniProt P22002); type: functional
[2] = target: T1, Muscarinic acetylcholine receptor M1 (Homo sapiens, UniProt P11229); type: functional
T1 sequence (P11229 whole entry): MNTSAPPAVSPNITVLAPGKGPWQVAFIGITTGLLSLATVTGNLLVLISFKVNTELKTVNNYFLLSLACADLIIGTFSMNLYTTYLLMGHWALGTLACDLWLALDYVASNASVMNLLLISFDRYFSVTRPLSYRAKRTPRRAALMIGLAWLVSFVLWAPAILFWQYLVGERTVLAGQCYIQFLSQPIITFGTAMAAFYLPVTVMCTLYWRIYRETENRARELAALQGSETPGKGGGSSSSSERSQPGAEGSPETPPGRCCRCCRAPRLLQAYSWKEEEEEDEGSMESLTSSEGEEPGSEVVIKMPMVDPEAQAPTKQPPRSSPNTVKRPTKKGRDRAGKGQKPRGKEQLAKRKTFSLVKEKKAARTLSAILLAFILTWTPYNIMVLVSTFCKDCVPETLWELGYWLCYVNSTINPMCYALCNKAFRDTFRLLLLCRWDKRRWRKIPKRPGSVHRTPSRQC

[3] = target: T2, Muscarinic acetylcholine receptor M2 (Homo sapiens, UniProt P08172); type: functional, cell-based
T2 sequence (P08172 whole entry): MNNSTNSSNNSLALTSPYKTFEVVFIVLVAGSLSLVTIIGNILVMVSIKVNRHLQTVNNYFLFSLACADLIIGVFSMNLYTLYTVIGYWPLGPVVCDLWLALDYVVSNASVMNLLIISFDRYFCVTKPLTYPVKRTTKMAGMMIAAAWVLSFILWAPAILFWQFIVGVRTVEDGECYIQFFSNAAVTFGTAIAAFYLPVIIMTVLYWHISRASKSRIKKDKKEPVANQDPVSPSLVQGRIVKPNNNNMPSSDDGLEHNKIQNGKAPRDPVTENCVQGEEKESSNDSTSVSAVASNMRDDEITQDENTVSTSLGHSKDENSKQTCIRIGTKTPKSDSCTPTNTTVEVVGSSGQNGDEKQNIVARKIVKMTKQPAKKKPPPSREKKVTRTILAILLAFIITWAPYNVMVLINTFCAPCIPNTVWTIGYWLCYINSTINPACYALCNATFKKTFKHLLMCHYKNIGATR

Histamine H1 receptor = Histamine H1 receptor (Homo sapiens, UniProt P35367)
Sequence of Histamine H1 receptor (P35367 whole entry): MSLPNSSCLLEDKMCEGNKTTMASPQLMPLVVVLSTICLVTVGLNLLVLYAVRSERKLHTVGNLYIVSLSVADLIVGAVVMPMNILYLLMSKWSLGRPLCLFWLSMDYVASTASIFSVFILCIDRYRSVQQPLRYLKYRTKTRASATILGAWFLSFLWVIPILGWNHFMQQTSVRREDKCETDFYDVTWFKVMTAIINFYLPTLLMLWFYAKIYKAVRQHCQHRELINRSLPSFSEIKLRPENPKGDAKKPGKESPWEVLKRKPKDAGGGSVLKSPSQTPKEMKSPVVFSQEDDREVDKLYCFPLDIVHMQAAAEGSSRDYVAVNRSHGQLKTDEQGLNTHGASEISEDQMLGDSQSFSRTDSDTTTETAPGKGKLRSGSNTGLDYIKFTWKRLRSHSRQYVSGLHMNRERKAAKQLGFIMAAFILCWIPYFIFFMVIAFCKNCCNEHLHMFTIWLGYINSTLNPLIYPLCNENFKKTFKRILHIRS

[4] = target: Voltage-gated inwardly rectifying potassium channel KCNH2 (Homo sapiens, UniProt Q12809); type: functional; settings: read-out: AC50
Sequence of Voltage-gated inwardly rectifying potassium channel KCNH2 (Q12809 whole entry): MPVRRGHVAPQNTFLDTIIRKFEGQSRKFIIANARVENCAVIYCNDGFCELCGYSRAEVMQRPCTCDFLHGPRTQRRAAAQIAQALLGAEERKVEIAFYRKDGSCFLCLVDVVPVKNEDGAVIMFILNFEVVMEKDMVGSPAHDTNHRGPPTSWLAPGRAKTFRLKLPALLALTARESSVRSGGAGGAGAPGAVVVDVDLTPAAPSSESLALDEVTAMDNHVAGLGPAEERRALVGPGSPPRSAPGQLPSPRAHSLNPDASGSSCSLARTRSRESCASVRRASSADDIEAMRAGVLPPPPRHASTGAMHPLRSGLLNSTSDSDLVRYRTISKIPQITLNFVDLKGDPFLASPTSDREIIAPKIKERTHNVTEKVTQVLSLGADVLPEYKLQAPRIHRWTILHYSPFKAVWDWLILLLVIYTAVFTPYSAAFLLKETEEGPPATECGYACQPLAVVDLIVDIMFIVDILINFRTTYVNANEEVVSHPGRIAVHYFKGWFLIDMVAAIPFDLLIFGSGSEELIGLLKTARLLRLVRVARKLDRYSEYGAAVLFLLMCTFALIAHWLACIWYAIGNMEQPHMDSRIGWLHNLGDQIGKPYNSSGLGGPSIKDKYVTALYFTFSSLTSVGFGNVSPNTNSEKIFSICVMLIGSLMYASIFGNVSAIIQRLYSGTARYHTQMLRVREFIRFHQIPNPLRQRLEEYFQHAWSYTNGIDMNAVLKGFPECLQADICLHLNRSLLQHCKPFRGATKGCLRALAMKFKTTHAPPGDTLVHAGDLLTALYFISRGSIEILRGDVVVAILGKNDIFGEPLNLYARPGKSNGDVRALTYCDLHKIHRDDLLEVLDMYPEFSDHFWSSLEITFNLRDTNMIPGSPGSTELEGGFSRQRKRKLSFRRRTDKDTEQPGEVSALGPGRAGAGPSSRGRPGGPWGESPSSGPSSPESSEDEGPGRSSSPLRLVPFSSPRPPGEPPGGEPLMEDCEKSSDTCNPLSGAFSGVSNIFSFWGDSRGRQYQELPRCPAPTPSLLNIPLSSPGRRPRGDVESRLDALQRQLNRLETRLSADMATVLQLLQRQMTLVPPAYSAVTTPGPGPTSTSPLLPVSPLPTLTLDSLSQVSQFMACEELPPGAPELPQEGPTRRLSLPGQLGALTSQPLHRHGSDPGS

Motilin receptor = Motilin receptor (Homo sapiens, UniProt O43193)
[5] = target: T3, Prostaglandin G/H synthase 1 (Rattus norvegicus, UniProt Q63921); type: functional
T3 sequence (Q63921 whole entry): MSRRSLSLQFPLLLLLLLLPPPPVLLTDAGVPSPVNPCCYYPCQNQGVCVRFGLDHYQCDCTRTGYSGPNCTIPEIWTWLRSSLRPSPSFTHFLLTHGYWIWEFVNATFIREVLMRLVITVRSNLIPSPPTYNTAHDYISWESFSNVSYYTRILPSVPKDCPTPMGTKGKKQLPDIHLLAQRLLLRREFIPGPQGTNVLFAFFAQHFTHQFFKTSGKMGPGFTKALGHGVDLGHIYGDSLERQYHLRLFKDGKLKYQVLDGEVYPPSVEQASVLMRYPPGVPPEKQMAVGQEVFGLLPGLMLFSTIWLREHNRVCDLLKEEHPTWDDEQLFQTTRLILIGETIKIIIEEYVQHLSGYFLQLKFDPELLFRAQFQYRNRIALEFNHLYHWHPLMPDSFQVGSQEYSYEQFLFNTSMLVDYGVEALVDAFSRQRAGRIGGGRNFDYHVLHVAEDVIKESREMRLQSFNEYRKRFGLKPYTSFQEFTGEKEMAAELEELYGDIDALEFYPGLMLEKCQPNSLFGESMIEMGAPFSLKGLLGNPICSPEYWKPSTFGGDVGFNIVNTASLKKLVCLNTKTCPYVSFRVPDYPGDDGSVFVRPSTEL

[6] = target: T4, Equilibrative nucleoside transporter 1 (Homo sapiens, UniProt Q99808)
T4 sequence (Q99808 whole entry): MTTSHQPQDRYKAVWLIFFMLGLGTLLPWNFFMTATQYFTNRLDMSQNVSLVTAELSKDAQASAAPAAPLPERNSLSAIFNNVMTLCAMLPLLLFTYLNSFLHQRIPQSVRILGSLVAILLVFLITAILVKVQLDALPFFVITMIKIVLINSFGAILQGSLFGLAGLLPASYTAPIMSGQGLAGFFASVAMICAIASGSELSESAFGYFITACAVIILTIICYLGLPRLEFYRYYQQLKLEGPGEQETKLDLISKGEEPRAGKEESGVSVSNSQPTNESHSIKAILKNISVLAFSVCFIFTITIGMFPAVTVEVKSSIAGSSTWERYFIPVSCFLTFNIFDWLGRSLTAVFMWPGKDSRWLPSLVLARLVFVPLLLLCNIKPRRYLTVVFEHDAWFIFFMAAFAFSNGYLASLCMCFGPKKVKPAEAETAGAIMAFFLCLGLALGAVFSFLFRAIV

[7] = target: Sodium-dependent dopamine transporter (Homo sapiens, UniProt Q01959)
Sequence of Sodium-dependent dopamine transporter (Q01959 whole entry): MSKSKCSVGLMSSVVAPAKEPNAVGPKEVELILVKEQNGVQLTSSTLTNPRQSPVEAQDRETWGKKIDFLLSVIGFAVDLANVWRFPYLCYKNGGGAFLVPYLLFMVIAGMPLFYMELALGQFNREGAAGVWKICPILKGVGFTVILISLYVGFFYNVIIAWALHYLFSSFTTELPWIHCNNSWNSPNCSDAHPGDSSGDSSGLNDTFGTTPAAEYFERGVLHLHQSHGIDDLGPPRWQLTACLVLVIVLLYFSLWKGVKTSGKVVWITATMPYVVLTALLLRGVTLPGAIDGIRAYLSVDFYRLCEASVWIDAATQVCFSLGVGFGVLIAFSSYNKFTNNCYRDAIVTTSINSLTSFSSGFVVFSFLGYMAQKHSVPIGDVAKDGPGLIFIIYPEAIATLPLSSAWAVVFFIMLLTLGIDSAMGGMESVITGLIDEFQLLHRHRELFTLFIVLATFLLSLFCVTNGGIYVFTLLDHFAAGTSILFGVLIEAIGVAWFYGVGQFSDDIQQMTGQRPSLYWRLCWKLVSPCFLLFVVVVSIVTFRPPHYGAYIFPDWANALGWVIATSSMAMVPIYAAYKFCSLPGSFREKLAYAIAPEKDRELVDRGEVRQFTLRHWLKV

[8] = target: Sodium-dependent serotonin transporter (Homo sapiens, UniProt P31645)
Sequence of Sodium-dependent serotonin transporter (P31645 whole entry): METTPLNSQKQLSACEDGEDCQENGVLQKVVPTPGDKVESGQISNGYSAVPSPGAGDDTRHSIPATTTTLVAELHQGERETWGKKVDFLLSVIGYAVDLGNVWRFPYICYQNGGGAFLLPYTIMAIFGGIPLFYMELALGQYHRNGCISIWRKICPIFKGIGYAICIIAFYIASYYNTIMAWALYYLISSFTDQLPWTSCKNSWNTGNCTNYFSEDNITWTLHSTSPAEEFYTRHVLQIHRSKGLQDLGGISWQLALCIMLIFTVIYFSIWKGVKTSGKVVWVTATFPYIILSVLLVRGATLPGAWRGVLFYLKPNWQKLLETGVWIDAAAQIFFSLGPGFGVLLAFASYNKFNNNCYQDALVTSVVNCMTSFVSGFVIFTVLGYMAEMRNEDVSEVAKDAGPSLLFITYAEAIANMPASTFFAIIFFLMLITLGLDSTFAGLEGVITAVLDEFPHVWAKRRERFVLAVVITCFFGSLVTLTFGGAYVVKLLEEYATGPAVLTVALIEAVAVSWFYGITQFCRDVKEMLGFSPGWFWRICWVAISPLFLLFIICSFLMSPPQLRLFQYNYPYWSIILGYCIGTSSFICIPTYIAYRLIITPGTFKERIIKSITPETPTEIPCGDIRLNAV

[9] = target: T5, Alpha-1A adrenergic receptor (Homo sapiens, UniProt P35348); type: functional, cell-based
T5 sequence (P35348 whole entry): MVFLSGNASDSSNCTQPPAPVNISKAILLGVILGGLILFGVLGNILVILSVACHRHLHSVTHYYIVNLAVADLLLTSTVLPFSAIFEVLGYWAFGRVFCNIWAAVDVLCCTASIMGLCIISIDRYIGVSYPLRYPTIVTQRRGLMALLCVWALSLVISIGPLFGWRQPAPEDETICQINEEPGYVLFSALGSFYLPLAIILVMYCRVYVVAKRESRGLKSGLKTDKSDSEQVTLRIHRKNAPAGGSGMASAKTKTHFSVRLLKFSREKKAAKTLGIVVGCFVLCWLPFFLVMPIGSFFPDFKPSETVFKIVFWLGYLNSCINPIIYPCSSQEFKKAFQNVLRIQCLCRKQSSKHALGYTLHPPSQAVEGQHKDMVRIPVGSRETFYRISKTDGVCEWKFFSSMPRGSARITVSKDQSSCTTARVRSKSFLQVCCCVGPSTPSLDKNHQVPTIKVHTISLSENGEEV

Histamine H3 receptor = Histamine H3 receptor (Homo sapiens, UniProt Q9Y5N1)
Further: assay procedure not described here.

Sequence of Voltage-dependent L-type calcium channel subunit alpha-1C (P22002 whole entry): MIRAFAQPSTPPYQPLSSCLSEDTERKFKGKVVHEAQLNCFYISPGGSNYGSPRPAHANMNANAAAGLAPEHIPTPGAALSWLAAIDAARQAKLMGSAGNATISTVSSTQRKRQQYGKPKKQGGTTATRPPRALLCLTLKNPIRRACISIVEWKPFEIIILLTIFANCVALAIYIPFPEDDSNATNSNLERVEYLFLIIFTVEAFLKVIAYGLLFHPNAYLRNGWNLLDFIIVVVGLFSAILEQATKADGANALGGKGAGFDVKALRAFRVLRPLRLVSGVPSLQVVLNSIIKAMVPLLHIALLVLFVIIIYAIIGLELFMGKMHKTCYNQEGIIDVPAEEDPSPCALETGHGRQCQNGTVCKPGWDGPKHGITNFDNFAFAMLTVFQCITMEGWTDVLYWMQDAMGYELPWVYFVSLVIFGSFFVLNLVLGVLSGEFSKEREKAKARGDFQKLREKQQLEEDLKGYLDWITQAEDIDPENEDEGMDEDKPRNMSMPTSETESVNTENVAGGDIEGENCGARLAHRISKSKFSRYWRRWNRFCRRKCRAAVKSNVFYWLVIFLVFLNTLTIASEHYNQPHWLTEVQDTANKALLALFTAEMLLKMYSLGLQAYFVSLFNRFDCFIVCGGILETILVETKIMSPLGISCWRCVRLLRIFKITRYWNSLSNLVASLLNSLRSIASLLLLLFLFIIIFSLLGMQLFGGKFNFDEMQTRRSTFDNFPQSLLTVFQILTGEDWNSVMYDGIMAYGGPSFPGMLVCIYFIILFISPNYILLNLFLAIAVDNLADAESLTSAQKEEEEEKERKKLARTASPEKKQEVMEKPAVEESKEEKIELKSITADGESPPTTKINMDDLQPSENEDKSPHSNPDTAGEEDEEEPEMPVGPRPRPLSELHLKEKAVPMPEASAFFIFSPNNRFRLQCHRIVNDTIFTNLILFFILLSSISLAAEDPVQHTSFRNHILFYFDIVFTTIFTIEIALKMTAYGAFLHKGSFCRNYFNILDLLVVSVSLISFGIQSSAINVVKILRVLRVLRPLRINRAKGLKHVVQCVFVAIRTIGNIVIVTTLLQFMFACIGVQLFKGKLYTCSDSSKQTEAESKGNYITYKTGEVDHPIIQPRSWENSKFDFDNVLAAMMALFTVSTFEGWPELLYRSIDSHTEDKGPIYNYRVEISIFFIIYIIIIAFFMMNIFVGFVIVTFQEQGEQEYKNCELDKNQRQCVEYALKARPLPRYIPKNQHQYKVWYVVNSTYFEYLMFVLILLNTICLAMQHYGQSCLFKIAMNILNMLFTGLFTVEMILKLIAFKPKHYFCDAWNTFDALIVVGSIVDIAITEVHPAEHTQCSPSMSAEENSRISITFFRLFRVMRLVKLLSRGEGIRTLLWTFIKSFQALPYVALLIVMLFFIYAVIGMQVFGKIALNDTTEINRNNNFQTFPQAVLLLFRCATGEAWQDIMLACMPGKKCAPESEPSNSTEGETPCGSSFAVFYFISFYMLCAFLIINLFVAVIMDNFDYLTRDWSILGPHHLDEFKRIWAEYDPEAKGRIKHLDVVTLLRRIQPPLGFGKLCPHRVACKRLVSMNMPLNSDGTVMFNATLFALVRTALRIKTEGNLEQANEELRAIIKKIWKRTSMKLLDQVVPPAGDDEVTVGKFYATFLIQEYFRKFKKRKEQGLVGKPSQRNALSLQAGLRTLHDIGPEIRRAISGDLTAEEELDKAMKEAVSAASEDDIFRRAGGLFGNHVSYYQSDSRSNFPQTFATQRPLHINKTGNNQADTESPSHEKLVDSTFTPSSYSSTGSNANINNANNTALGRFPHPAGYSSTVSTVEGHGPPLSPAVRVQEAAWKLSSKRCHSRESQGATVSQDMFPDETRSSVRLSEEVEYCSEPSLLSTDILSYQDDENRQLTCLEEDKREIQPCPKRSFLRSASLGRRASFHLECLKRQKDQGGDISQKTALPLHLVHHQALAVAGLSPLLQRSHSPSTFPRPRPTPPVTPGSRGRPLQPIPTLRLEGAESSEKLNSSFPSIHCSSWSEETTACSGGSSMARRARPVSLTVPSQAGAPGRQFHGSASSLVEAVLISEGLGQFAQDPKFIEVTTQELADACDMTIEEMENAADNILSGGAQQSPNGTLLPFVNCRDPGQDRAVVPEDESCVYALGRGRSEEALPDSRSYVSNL

| Compound | AC50 [1] | AC50 [2] | AC50 [3] | AC50 (Histamine H1 receptor) | AC50 [4] | AC50 (Motilin receptor) | AC50 [5] | AC50 [6] | AC50 [7] | AC50 [8] | AC50 [9] | AC50 (Histamine H3 receptor) |
| --- | --- | --- | --- | --- | --- | --- | --- | --- | --- | --- | --- | --- |
| CN1C(=O)CN=C(c2ccccc2F)c2cc([N+](=O)[O-])ccc21 [FLUNITRAZEPAM] | > 10 µM | > 10 µM | > 10 µM | > 10 µM | > 30 µM | > 10 µM | > 30 µM | > 30 µM | > 10 µM | > 10 µM | > 30 µM | > 10 µM |
| Cc1ccc(S(=O)(=O)NC(=O)N[C@H]2[C@H]3CC[C@@](C)([C@H]2O)C3(C)C)cc1 [GLIBORNURIDE] | > 30 µM | > 30 µM | > 30 µM | > 30 µM | > 30 µM | > 30 µM | > 30 µM | > 30 µM | > 30 µM | > 30 µM | > 30 µM | > 30 µM |
| COc1ccc2c3c1O[C@H]1C(=O)CC[C@H]4[C@@H](C2)N(C)CC[C@]314 [HYDROCODONE] | > 10 µM | > 10 µM | > 10 µM | > 10 µM | > 30 µM | > 10 µM | > 30 µM | > 30 µM | > 10 µM | > 10 µM | > 30 µM | > 10 µM |
| O=C(C[S+]([O-])Cc1ccco1)NC/C=C\COc1cc(CN2CCCCC2)ccn1 (stereo not given) [LAFUTIDINE] | > 10 µM | > 10 µM | > 10 µM | > 10 µM | > 30 µM | > 10 µM | > 10 µM | > 10 µM | > 10 µM | > 10 µM | > 30 µM | > 10 µM |
| CCN(CC)Cc1nccn1-c1ccc([N+](=O)[O-])cc1C(=O)c1ccccc1Cl [NIZOFENONE] | > 30 µM | > 30 µM | > 30 µM | > 30 µM | 1.38 µM | > 30 µM | > 30 µM | > 30 µM | > 30 µM | > 30 µM | > 30 µM | > 30 µM |
| CC(C)(N)Cc1ccccc1 [PHENTERMINE] | > 10 µM | > 10 µM | > 10 µM | > 10 µM | > 30 µM | > 10 µM | > 30 µM | > 30 µM | > 30 µM | > 30 µM | > 30 µM | > 10 µM |
| CCCCOC(=O)C(=O)Nc1cccc(-c2nnn[nH]2)c1 [TAZANOLAST] | > 30 µM | > 30 µM | > 30 µM | > 30 µM | > 30 µM | > 30 µM | > 30 µM | > 30 µM | > 30 µM | > 30 µM | > 30 µM | > 30 µM |
| CC1=C(/C=C/C(C)=C/C=C/C(C)=C/C(=O)Oc2c(C)c(C)c3c(c2C)CCC(C)(CCCC(C)CCCC(C)CCCC(C)C)O3)C(C)(C)CCC1 (stereo not given) [TRETINOIN TOCOFERIL] | > 30 µM | > 30 µM | > 30 µM | > 30 µM | > 30 µM | > 30 µM | > 30 µM | > 30 µM | > 30 µM | > 30 µM | > 30 µM | > 30 µM |
| CN(C)CCOCC(=O)NC12CC3CC(CC(C3)C1)C2 [TROMANTADINE] | > 30 µM | > 30 µM | > 30 µM | > 30 µM | > 30 µM | > 30 µM | > 30 µM | > 30 µM | > 30 µM | > 30 µM | > 30 µM | > 30 µM |
| OCC(CO)N[C@H]1C[C@](O)(CO)[C@@H](O)[C@H](O)[C@H]1O [VOGLIBOSE] | > 30 µM | > 30 µM | > 30 µM | > 30 µM | > 30 µM | > 30 µM | > 30 µM | > 30 µM | > 30 µM | > 30 µM | > 30 µM | > 30 µM |
